Experimental findings from article PMC4703549 (Cancer research, 2015) are described below.

“Also recorded” adds a separate entry of the source. Where two headings read alike, the source gives them in different places.

One test deals with TNK2 D163E cells. Type of test: cell-based, murine. The conditions noted are these: for IC50: Ba/F3 TNK2 D163E, no IL3, 72 hours, MTS.
In the next test the test system is TNK2 R806Q cells. Type of test: cell-based, murine. The conditions noted are these: for IC50: Ba/F3 TNK2 R806Q, no IL3, 72 hours, MTS.
The subject of test [1] is TNK2 D163E T205I and T205M Ba/F3 lines. Type of test: cell-based, murine. Conditions: T205I and T205M added to D163E, IL-3 independent Ba/F3 lines.
In test [2] the test system is TNK2 S808* and TNK2 Q831fs. In words: Phosphorylation of TNK2 truncation mutants in transfected 293T17 cells. Type of test: cell-based, human. Conditions: 1 μM dasatinib, 2.5 μM XMD8-87 or 2.5 μM XMD16-5, 3.5 hours.
Another test relates to parental Ba/F3 cells. As to the kind of experiment: Inhibitor study, MTS viability of control Ba/F3 cells grown in IL3. Type of test: cell-based, murine. The conditions noted are these: IL3 containing medium; highest tested concentration 1,000 nM.

A word on the IC50: it is the concentration at which inhibition is half-maximal. For the molecule `COc1cc(N2CCN(C)CC2)ccc1Nc1ncc2c(n1)N(C)c1ccccc1C(=O)N2` [XMD8-87], the IC50 in the test with TNK2 D163E cells was 38 nM; in the test on TNK2 R806Q cells, 113 nM. For the same molecule, the “sensitivity of D163E cell lines carrying gatekeeper mutations” value in test [1] was “resistance”. Further, the “inhibition of phosphorylation of TNK2 truncation mutants” value (“inhibition” below) in test [2] is listed as “vast majority of phosphorylation was blocked; also recorded: inhibited; also recorded: potently inhibit”.

Take `Cc1nc(Nc2ncc(C(=O)Nc3c(C)cccc3Cl)s2)cc(N2CCN(CCO)CC2)n1` [dasatinib, N-(2-chloro-6-methyl-phenyl)-2-(6-(4-(2-hydroxyethyl)-piperazin-1-yl)-2-methylpyrimidin-4-ylamino)thiazole-5-carboxamide]: the “sensitivity of post-transformation line” value in the test with TNK2 D163E cells (Ba/F3 TNK2 D163E post-interleukin-3-independent transformation) and in the test with TNK2 R806Q cells (Ba/F3 TNK2 R806Q post-interleukin-3-independent transformation) was “sensitive to dasatinib at low nanomolar concentrations” throughout. For the same molecule, the IC50 is less than 10 nM with TNK2 D163E cells, approximately 0.1 nM in the test on TNK2 D163E cells (listed as Dasatinib), less than 10 nM in the test with TNK2 R806Q cells and 1.3 nM in the test with TNK2 R806Q cells (listed as Dasatinib). Further, the “sensitivity of control or pre-transformation cell lines grown in IL3” value with parental Ba/F3 cells is “did not show sensitivity; also recorded: completely insensitive”. For the same molecule, the “sensitivity of D163E cell lines carrying gatekeeper mutations” value in test [1] was “resistance”. In addition, the “inhibition” value in test [2] was “vast majority of phosphorylation was blocked; also recorded: inhibited”.

Turning to `CN1c2ccccc2C(=O)Nc2cnc(Nc3ccc(N4CCC(O)CC4)cc3)nc21` [XMD16-5], the values for the IC50 in the test on TNK2 D163E cells and in the test on TNK2 R806Q cells were 16 nM and 77 nM, respectively. Further, the “sensitivity of D163E cell lines carrying gatekeeper mutations” value in test [1] is recorded as “resistance”. Besides, the “inhibition” value in test [2] was “vast majority of phosphorylation was blocked; also recorded: inhibited; also recorded: potently inhibit”.

As for `c1ccc(-c2oc3ncnc(NC[C@@H]4CCCO4)c3c2-c2ccccc2)cc1` [AIM-100], the figures for the IC50 with TNK2 D163E cells and with TNK2 R806Q cells were 91 nM and 320 nM, respectively. Moreover, in test [1], the “sensitivity of D163E cell lines carrying gatekeeper mutations” value is listed as “resistance”.
